Legend:
[1] = system: Herpes Simplex virus; assay: Twice-daily coating of open Herpes Simplex lip sores with cyanoacrylate (case reports); format: in vivo, human
From the text: A person had open sores on their lower lip from which a clear liquid was exuding. The sores were diagnosed as resulting from the Herpes Simplex virus. Their initial office treatment consisted of swabbing the open sores with n-butyl-cyanoacrylate using a surgical swab until the sores and surrounding tissue were completely covered. They were given a supply of n-butyl-cyanoacrylate and surgical paddles for self-application and instructed on their use. They were cautioned not to close their lips or press them together after applying the n-butyl-cyanoacrylate for two to three minutes so that the coating over the sores would be completely dry.
An individual had open sores on their lip from which a clear liquid was exuding. The sores were diagnosed as Herpes Simplex virus.
An individual had open sores on their lip from which a clear liquid was exuding. The sores were diagnosed as resulting from the Herpes Simplex virus. They were instructed to coat the sores with 2 acetyl cyanoacrylate using a surgical swab until the sores and surrounding tissue were completely covered.
An individual had open sores on their lip from which a clear liquid was exuding. The sores were diagnosed as resulting from the Herpes Simplex virus. They were instructed to coat the sores with octyl-cyanoacrylate using a surgical swab until the sores and surrounding tissue were completely covered.

[2] = system: Herpes Simplex virus; assay: Twice-daily coating of a Herpes Simplex prodrome on the lip with cyanoacrylate (case report); format: in vivo, human; details: itching prodrome on lower lip, topical coating twice daily for three days
From the text: Before the open Herpes sore forms, an area where the sore will form becomes sensitive and itchy, and is known as a prodrome. The application of cyanoacrylate to the prodrome prevents the sore from forming. The cyanoacrylate can also be applied in the same manner as previously described to the prodrome.
A person had itching on their lower lip. The itching was diagnosed as resulting from a prodrome of the Herpes Simplex virus. Their initial office treatment consisted of being told to swab the prodrome with n-butyl-cyanoacrylate using a surgical swab until the prodrome and surrounding tissue were completely covered. They were given a supply of n-butyl-cyanoacrylate and surgical paddles for self-application and instructed on their use.

[3] = topical coating twice daily for three days

## 2 acetyl cyanoacrylate
[1]; [3]
  state of the open sores (exudation of clear liquid) at end of treatment: no longer exuding

## C=C(C#N)C(=O)OCC [ethyl cyanoacrylate]
[1]; topical coating twice daily for several days
  state of the open sores (exudation of clear liquid) at end of treatment: no longer exudating

## C=C(C#N)C(=O)OCCCC [n-butyl-cyanoacrylate]
[2]
  outcome of prodrome (sore formation): prodrome disappeared and no sores formed or exuded
[1]; [3]
  state of the open sores (exudation of clear liquid) at end of treatment: no longer exudating

## C=C(C#N)C(=O)OCCCCCCCC [octyl-cyanoacrylate]
[1]; [3]
  state of the open sores (exudation of clear liquid) at end of treatment: no longer exuding

— patent publication US20010051179A1, “METHOD FOR PREVENTING THE SPREAD OF INFECTIOUS MICROORGANISMS USING CYANOACRYLATE” (priority 1996, published 2001)
